Experimental data from US20080261973A1, “Sulphonamidoaniline Derivatives Being Janus Kinase Inhibitors” (Novartis AG, priority 2005, published 2008).

SMILES | melting point [°C]
CS(=O)(=O)Nc1cccc(Nc2nc(NC3CCCC3)c3nc[nH]c3n2)c1 [Example 37, N-[3-(6-Cyclopentylamino-9H-purin-2-ylamino)-phenyl]-methanesulfonamide] | 234 to 239
CC(C)N(CCNc1nc(Nc2cccc(NS(C)(=O)=O)c2)nc2[nH]cnc12)C(C)C [Example 5, N-(3-{6-[2-Diisopropylamino-ethylamino]-9H-purin-2-ylamino]-phenyl}-methanesulfonamide] | 226 to 230
CS(=O)(=O)Nc1cccc(Nc2nc(NCCN3CCOCC3)c3nc[nH]c3n2)c1 [Example 22, N-{3-[6-(2-Morpholin-4-yl-ethylamino)-9H-purin-2-ylamino]-phenyl}-methanesulfonamide] | 233 to 237
CS(=O)(=O)Nc1cccc(Nc2nc(NCCO)c3nc[nH]c3n2)c1 [Example 17, N-{3-[6-(2-Hydroxy-ethylamino)-9H-purin-2-ylamino]-phenyl}-methanesulfonamide] | 163 to 166
CN(C)c1ccc(CNc2nc(Nc3cccc(NS(C)(=O)=O)c3)nc3[nH]cnc23)cc1 [Example 20, N-{3-[6-(4-Dimethylamino-benzylamino)-9H-purin-2-ylamino]-phenyl}-methanesulfonamide] | 138 to 142
C[C@@H](Nc1nc(Nc2cccc(NS(C)(=O)=O)c2)nc2[nH]cnc12)c1ccccc1 [Example 41, N-{3-[6-((R)-1-Phenyl-ethylamino)-9H-purin-2-ylamino]-phenyl}-methanesulfonamide] | 136 to 139
CC(C)[C@@H](CO)Nc1nc(Nc2cccc(NS(C)(=O)=O)c2)nc2[nH]ccc12 [Example 84, N-{3-[4-((S)-1-Hydroxymethyl-2-methyl-propylamino)-7H-pyrrolo[2,3-d]pyrimidin-2-ylamino]-phenyl}-methanesulfonamide] | 106 to 109
CN(C)c1cccc(CNc2nc(Nc3cccc(NS(C)(=O)=O)c3)nc3[nH]cnc23)c1 [Example 31, N-{3-[6-(3-Dimethylamino-benzylamino)-9H-purin-2-ylamino]-phenyl}-methanesulfonamide] | 148 to 151
CS(=O)(=O)Nc1cccc(Nc2nc(NCc3ccccc3O)c3nc[nH]c3n2)c1 [Example 94, N-{3-[6-(2-Hydroxy-benzylamino)-9H-purin-2-ylamino]-phenyl}-methanesulfonamide] | 168 to 171
CS(=O)(=O)Nc1cccc(Nc2nc(NCC3CCCCN3)c3nc[nH]c3n2)c1 (stereo not drawn) [Example 21, N-(3-{6-[(Piperidin-2-ylmethyl)-amino]-9H-purin-2-ylamino}-phenyl)-methanesulfonamide] | 147 to 150
CC(C)(CO)Nc1nc(Nc2cccc(NS(C)(=O)=O)c2)nc2[nH]cnc12 [Example 16, N-{3-[6-(2-Hydroxy-1,1-dimethyl-ethylamino)-9H-purin-2-ylamino]-phenyl}-methanesulfonamide] | 215 to 218
C[C@H](Nc1nc(Nc2cccc(NS(C)(=O)=O)c2)nc2[nH]cnc12)C(C)(C)C [Example 38, N-{3-[6-((S)-1,2,2-Trimethyl-propylamino)-9H-purin-2-ylamino]-phenyl}-methanesulfonamide] | 150 to 153
CS(=O)(=O)Nc1cccc(Nc2nc(OC3CCCC3)c3nc[nH]c3n2)c1 [Example 23, N-[3-(6-Cyclopentyloxy-9H-purin-2-ylamino)-phenyl]-methanesulfonamide] | 137 to 140
COCCOc1nc(Nc2cccc(NS(C)(=O)=O)c2)nc2[nH]cnc12 [Example 32, N-{3-[6-(2-Methoxy-ethoxy)-9H-purin-2-ylamino]-phenyl}-methanesulfonamide] | 201 to 204
CS(=O)(=O)Nc1cccc(Nc2nc(OC3CCCC3)c3cc[nH]c3n2)c1 [Example 43, N-[3-(4-Cyclopentyloxy-7H-pyrrolo[2,3-d]pyrimidin-2-ylamino)-phenyl]-methanesulfonamide] | 203 to 205
CS(=O)(=O)Nc1cccc(Nc2nc(N3CCC(O)C3)c3nc[nH]c3n2)c1 (stereo not drawn) [Example 12, N-{3-[6-(3-Hydroxy-pyrrolidin-1-yl)-9H-purin-2-ylamino]-phenyl}-methanesulfonamide] | 243 to 248
C[C@@H](Nc1nc(Nc2cccc(NS(C)(=O)=O)c2)nc2[nH]cnc12)C(C)(C)C [Example 39, N-{3-[6-((R)-1,2,2-Trimethyl-propylamino)-9H-purin-2-ylamino]-phenyl}-methanesulfonamide] | 169 to 171
CC(C)N(CCO)c1nc(Nc2cccc(NS(C)(=O)=O)c2)nc2[nH]ccc12 [Example 87, N-(3-{4-[(2-Hydroxy-ethyl)-isopropyl-amino]-7H-pyrrolo[2,3-d]pyrimidin-2-ylamino}-phenyl)-methanesulfonamide] | 129 to 132
CS(=O)(=O)Nc1cccc(Nc2nc(NC3CN4CCC3CC4)c3nc[nH]c3n2)c1 (stereo not drawn) | 200 to 204
CS(=O)(=O)Nc1cccc(Nc2nc(Oc3ccc(F)cc3)c3nc[nH]c3n2)c1 [Example 46, N-{3-[6-(4-Fluoro-phenoxy)-9H-purin-2-ylamino]-phenyl}-methanesulfonamide] | 136 to 139

SMILES | melting point [°C]
C=CS(=O)(=O)Nc1cccc(Nc2nc(N[C@H](C)C(C)(C)C)c3nc[nH]c3n2)c1 [Example 97, Ethenesulfonic acid {3-[6-((R)-1,2,2-trimethyl-propylamino)-9H-purin-2-ylamino]-phenyl}-amide] | 133 to 136
C[C@H](Nc1nc(Nc2cccc(NS(C)(=O)=O)c2)nc2[nH]cnc12)c1ccccc1 [Example 40, N-{3-[6-((S)-1-Phenyl-ethylamino)-9H-purin-2-ylamino]-phenyl}-methanesulfonamide] | 141 to 144
CC(C)(C)CNc1nc(Nc2cccc(NS(C)(=O)=O)c2)nc2[nH]cnc12 [Example 50, N-{3-[6-(2,2-Dimethyl-propylamino)-9H-purin-2-ylamino]-phenyl}-methanesulfonamide] | 270 to 273
CS(=O)(=O)Nc1cccc(Nc2nc(NCc3cccc(C#N)c3)c3nc[nH]c3n2)c1 [Example 78, N-{3-[6-(3-Cyano-benzylamino)-9H-purin-2-ylamino]-phenyl}-methanesulfonamide] | 128 to 131
CS(=O)(=O)Nc1ccc(Nc2nc(NC3CCCC3)c3nc[nH]c3n2)cc1 [Example 44, N-[4-(6-Cyclopentylamino-9H-purin-2-ylamino)-phenyl]-methanesulfonamide] | 261 to 265
CS(=O)(=O)Nc1cccc(Nc2nc(N3CCCC3)c3nc[nH]c3n2)c1 [Example 14, N-[3-(6-Pyrrolidin-1-yl-9H-purin-2-ylamino)-phenyl]-methanesulfonamide] | 164 to 168
C[C@@H](Nc1nc(Nc2cccc(NS(C)(=O)=O)c2)nc2[nH]ccc12)C(C)(C)C [Example 49, N-{3-[4-((R)-1,2,2-Trimethyl-propylamino)-7H-pyrrolo[2,3-d]pyrimidin-2-ylamino]-phenyl}-methanesulfonamide] | 125 to 128
CS(=O)(=O)Nc1cccc(Nc2nc(NCC(O)CO)c3nc[nH]c3n2)c1 (stereo not drawn) [Example 11, N-{3-[6-(2,3-Dihydroxy-propylamino)-9H-purin-2-ylamino]-phenyl}-methanesulfonamide] | 164 to 168
CN1CCN(c2nc(Nc3cccc(NS(C)(=O)=O)c3)nc3[nH]cnc23)CC1 [Example 18, N-{3-[6-(4-Methyl-piperazin-1-yl)-9H-purin-2-ylamino]-phenyl}-methanesulfonamide] | 148 to 151
CN(CCC#N)c1nc(Nc2cccc(NS(C)(=O)=O)c2)nc2[nH]cnc12 [Example 8, N-(3-{6-[(2-Cyano-ethyl)-methyl-amino]-9H-purin-2-ylamino}-phenyl)-methanesulfonamide] | 218 to 222
CC(C)N(C)c1nc(Nc2cccc(NS(C)(=O)=O)c2)nc2[nH]cnc12 [Example 36, N-{3-[6-(Isopropyl-methyl-amino)-9H-purin-2-ylamino]-phenyl}-methanesulfonamide] | 144 to 147
CS(=O)(=O)Nc1cccc(Nc2nc(NCc3cccc(N)c3)c3nc[nH]c3n2)c1 [Example 72, N-{3-[6-(3-Amino-benzylamino)-9H-purin-2-ylamino]-phenyl}-methanesulfonamide] | 170 to 173
CC(C)NCCNc1nc(Nc2cccc(NS(C)(=O)=O)c2)nc2[nH]ccc12 [Example 82, N-{3-[4-(2-Isopropylamino-ethylamino)-7H-pyrrolo[2,3-d]pyrimidin-2-ylamino]-phenyl}-methanesulfonamide] | 127 to 131
CS(=O)(=O)Nc1cccc(Nc2nc(OC3CCOC3)c3nc[nH]c3n2)c1 (stereo not drawn) [Example 25, N-{3-[6-(Tetrahydro-furan-3-yloxy)-9H-purin-2-ylamino]-phenyl}-methanesulfonamide] | 255 to 257
CS(=O)(=O)Nc1cccc(Nc2nc(N3CCC[C@H]3CO)c3nc[nH]c3n2)c1 [Example 3, N-{3-[6-((S)-2-Hydroxymethyl-pyrrolidin-1-yl)-9H-purin-2-ylamino]-phenyl}-methanesulfonamide] | 192 to 197
CCC(C)(C)[C@@H](C)Nc1nc(Nc2cccc(NS(C)(=O)=O)c2)nc2[nH]cnc12 [Example 65, N-{3-[6-((R)-1,2,2-Trimethyl-butylamino)-9H-purin-2-ylamino]-phenyl}-methanesulfonamide] | 143 to 146
CC(=O)Nc1cccc(CNc2nc(Nc3cccc(NS(C)(=O)=O)c3)nc3[nH]cnc23)c1 [Example 64, N-(3-{[2-(3-Methanesulfonylamino-phenylamino)-9H-purin-6-ylamino]-methyl}-phenyl)-acetamide] | 159 to 162
CS(=O)(=O)Nc1cccc(Nc2nc(NCc3cccnc3)c3nc[nH]c3n2)c1 [Example 15, N-(3-{6-[(Pyridin-3-ylmethyl)-amino]-9H-purin-2-ylamino}-phenyl)-methanesulfonamide] | 144 to 147
CS(=O)(=O)Nc1cccc(Nc2nc(OCC3CCCCC3)c3nc[nH]c3n2)c1 [Example 24, N-[3-(6-Cyclohexylmethoxy-9H-purin-2-ylamino)-phenyl]-methanesulfonamide] | 169 to 172
